Assay [1] addresses T1, PARK7 (Homo sapiens, UniProt Q99497).
T1 sequence (Q99497 1-189): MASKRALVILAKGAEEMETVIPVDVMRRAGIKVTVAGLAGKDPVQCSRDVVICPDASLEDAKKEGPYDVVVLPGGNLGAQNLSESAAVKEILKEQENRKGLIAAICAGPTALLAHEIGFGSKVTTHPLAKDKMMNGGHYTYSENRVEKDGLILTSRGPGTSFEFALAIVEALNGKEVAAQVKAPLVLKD
Description: Hit validation and pure-compound testing in the PARK7 FP assay with JYQ-107. The class given is biochemical. Conditions: pure compounds.

In assay [2] the target is T1, PARK7. Nature of the assay: Cell-based competition assay with probe JYQ-92 in HEK293T cells. The settings on record: intact HEK293T cells, concentration series, 24 h. On the procedure:
Samples were resolved by SDS-PAGE and analyzed by fluorescence scanning and Western blotting (Figure 2B). The target engagement of cellular PARK7 is reflected by the disappearance of the PARK7 labeling band in the fluorescence gel scan and by the loss of the shifted probe-labeled PARK7 band in the Western blot.
HEK293T cells were treated with the indicated concentrations of indicated inhibitors for indicated incubation time.
Figure S1. Assessment of the cell permeability of JYQ -88. (A) Structure of JYQ-92.
(B) Target engagement of JYQ-88 in HEK293T cells. HEK293T cells were incubated […]
with PARK7 probe JYQ-92 fo r 1 h at 37 °C. The reactions were stopped by the addition of NuPAGE™ LDS sample buffer (4x). Samples were resolved by SDS -PAGE using […]
fluorescence scanning on a Typhoon FLA 9500 (GE Healthcare Life Sciences) using […]
The disappearance of the JYQ-92-labeled band in […]
of JYQ-88 is used as a measurement of cellular PARK7 engagement with JYQ -88.
(1 picture or pasted object on this page, not shown here)

Assay [3] has as its target T1, PARK7. The settings on record: read-out: IC50 (nM) DiFUMAc; 0.1 μM PARK7, 1 h preincubation, 300 μM DiFMUAc.
Description: Compounds were transferred using a Labcyte Echo550 acoustic dispenser to obtain a 12-point serial dilution of 0.001–100 μM. Next, PARK7 (15 μL, final concentration 0.1 μM) was dispensed with a Biotek MultiFlowFX liquid dispenser and incubated for 1 h, followed by dispensing the substrate DiFMUAc (5 μL, final concentration 300 μM). The fluorescence intensity (FI) signal was monitored on a BMG Labtech PHERAstar plate reader (λex/em 350/450 nm) for 1 h.
In assay [4] the target is T1, PARK7. Nature of the assay: Probe labeling of endogenous PARK7 in cells (HEK293T, A549). The class given is cell-based. Conditions: 5 μM; for labeling of PARK7 in cells: HEK293T and A549 cells, 24 h. As to the method:
To further investigate the ability of these probes to visualize PARK7 in cells, HEK293T and A549 cells were incubated with 5 μM of these probes for 24 h, followed by cell lysis, SDS-PAGE, fluorescence scanning, and immunostaining (Supporting Information Figure S7). […] We also observed a band shift of the PARK7 protein in the samples treated with JYQ-192, JYQ-196, and JYQ-197 by immunoblot against PARK7 in A549 cells. […] Therefore, we further investigated JYQ-192, JYQ-196, and JYQ-197. To characterize their cell permeability, A549 cells were incubated with 5 μM final concentration of these probes for the indicated time points, followed by confocal microscopy and by cell lysis, SDS-PAGE, fluorescence scanning, and immunostaining. All three probes already entered the cells after 1 h incubation (Supporting Information Figure S8A). […] Besides PARK7, we observed extra bands in the fluorescence scan for both HEK293T and A549 cells and a very strong band labeling between 55 and 75 kDa in A549 cells with a 5 μM final concentration of all probes.
Despite the fact that probe JYQ-196 outperformed SulfoCy5 probes JYQ-192 and JYQ-197 in terms of the cellular PARK7 labeling efficiency, this probe still lacked specificity toward PARK7. PARK7 is known to form dimers, trimers, and even high-molecular-weight complexes under nonreducing conditions.[29],[30] […] To investigate further whether lower concentrations of JYQ-196 can decrease unspecific labeling, HEK293T and A549 cells were incubated with increased concentrations (0–10 μM) of JYQ-196 for 4 h, followed by cell lysis, SDS-PAGE, fluorescence scanning, and immunostaining (Figure 4C).
Oligos used to knockdown PARK7 were purchased from Dharmacon (Cat#: MQ-005984-00-0002). Silencing was performed in HEK293T and A549 cells as follows: for a 24-well plate format, 50 μL of siRNA (500 nM stock) was incubated with 1 μL of Dharmafect reagent 1 (Dharmacon) diluted in 50 μL of medium without supplements (total volume of 100 μL of transfection mix) with gentle shaking for 20 min at room temperature (RT). A total of 30 × 10^3 HEK293T or 50 × 10^3 cells were added to transfection mixes to a total volume of 500 μL per well and cultured for 48 h prior to incubation with 5 μM final concentration of JYQ-196 for 4 h.
HEK293T or A549 cells were incubated with indicated concentration of the probes for the indicated time points, followed by cell lysis and adding loading buffer (4x).

Assay [5] has as its target T1, PARK7. Description: Probe labeling of purified recombinant PARK7. Conditions: 1 μM PARK7, 1 h, 37 °C.
Description: The ability of these probes to label and visualize PARK7 activity in vitro was evaluated by treating recombinant human PARK7 protein (1 μM) with a concentration series of the probes for 1 h at 37 °C, followed by SDS-PAGE analysis under nondenaturing conditions (without boiling and β-mercaptoethanol).
The assay was conducted in Tris-buffer (50 mM Tris-HCl, 150 mM NaCl, 2 mM TCEP, pH 7.5). PARK7 (1 μM final concentration) was incubated with different concentrations (0, 0.1, 0.5, 1, 2, 5, and 10 μM) of the indicated probes for 1 h at 37 °C. After completing the incubation time, all of the reactions were stopped by adding NuPAGE LDS sample buffer (4x).

As a reminder, the inhibition is the drop in the measured response relative to a control, in per cent. The IC50 is the concentration that gives 50% inhibition.

Entries after “also recorded” stand apart in the source; their conditions may differ.

For the molecule `N#CN1CC[C@@H](C(=O)Nc2nc3c(s2)CN(C(=O)CN=[N+]=[N-])CC3)C1` [JYQ-88, reference compound], the inhibition at 0.25 µM in assay [1] (0.25 µM, read-out: % Inhibition 0.25 µM) was determined as 55.4%. This molecule registered an inhibition at 1 µM in assay [1] (1 µM) of 83.2%. Also, the “cellular PARK7 engagement of JYQ-88” value in assay [2] is on record as “did not show inhibition of PARK7 in cells; also recorded: poor cellular engagement”. Also, the IC50 in assay [3] was determined as 120 nM.
Consider `CC1=CC(C)=[N+]2C1=C(CCCCc1cn(CC(=O)N3CCN(S(=O)(=O)c4cccc(C(=O)N5CCc6nc(NC(=O)[C@@H]7CCN(C#N)C7)sc6C5)c4)CC3)nn1)c1c(C)cc(C)n1[B-]2(F)F` [JYQ-191], for which, in assay [4], the “labeling of PARK7 in cells” value is recorded as “inefficient labeling of cellular PARK7”. Moreover, in assay [5], the “probe concentration giving complete labeling of recombinant PARK7 (Coomassie band shift)” value turned out to be 5 µM.
`O=C1C(=O)N(CCc2ccccc2)c2ccc(F)cc21` [STK793590]: in assay [3], the IC50 is 130 nM.
As to `CC[N+]1=C(/C=C/C=C/C=C2/N(CCCCCC(=O)NCCCc3cn(CC(=O)N4CCN(S(=O)(=O)c5cccc(C(=O)N6CCc7nc(NC(=O)[C@@H]8CCN(C#N)C8)sc7C6)c5)CC4)nn3)c3ccc(S(=O)(=O)[O-])cc3C2(C)C)C(C)(C)c2cc(S(=O)(=O)O)ccc21` [JYQ-192], in assay [4] (A549 cells, indicated time points), the “cellular PARK7 labeling efficiency over time” value is recorded as “labeled a small portion of cellular PARK7 even after 24 h incubation”. Further, the “labeling of PARK7 in cells” value in assay [4] is listed as “clear band around 25 kDa”. In assay [5], the “probe concentration giving complete labeling of recombinant PARK7 (Coomassie band shift)” value came out at 2 µM.
